Data reported in patent EP1056460B1, “PHARMACEUTICAL PREPARATIONS FOR SELECTIVELY SUPPLEMENTING OESTROGEN DEFICIENCY IN THE CENTRAL NERVOUS SYSTEM” (priority 1998, dated 1999).

Experiments:
kognitive Leistung = experiment: Conditioned escape behaviour (retention and extinction) in ovariectomised rats after chronic treatment; assay type: in vivo, Wistar-Ratten; conditions: 30 µg daily s.c., retention tested on day 7
Text: (§1) Eine Korrelation zwischen Serum-Estrogenspiegel und kognitiver Leistung wurde auch im Tierversuchsmodell nachgewiesen (Kondo Y, Suzuki K, Sakuma Y, Estrogen aleviates cognitive dysfunction following transient brain ischemia in ovariectomized gerbils, Neurosci Lett 238: 45-48, 1997). […] Die gesamte Behandlungsdauer war 14 Tage. Am 5. und 6. Behandlungstag wurden Trainingssitzungen zum Erlernen eines konditionierten Escape-Verhaltens nach einer etablierten Methode (Diaz-Veliz G et al., Influence of the estrous cycle, ovariectomy and estradiol replacement upon the acquisition of conditioned avoidance responses in rats, Physiol Behav 46: 397-401, 1989) durchgeführt. Jedes Tier wurde in einer Sitzung 50 Mal der Kombination aus einem unbedingten (elektrische Reizung) und zwei konditionierenden Stimuli (Licht- und Schall-Signal) exponiert. Am 7. Behandlungstag wurde die Retention des erlernten Verhaltensmusters getestet. Nach einer 6-tägigen Unterbrechung der Lernsitzungen, wurde am 14. Behandlungstag die Extinktion des erlernten konditionierten Verhaltens ermittelt. Die Anzahl der korrekten Verhaltensreaktionen (Escape in das "sichere" Abteil des Apparats innerhalb von drei Sekunden nach Präsentation der konditionierenden Signale) aus 50 aufeinanderfolgenden Expositionen wurde als Kriterium für die Bewertung der Retention bzw. Extinktion des erlernten Verhaltens verwendet.

Oxytozin-Rezeptoren = experiment: Density of oxytocin receptors in brain and myometrium by 125I-OVTA autoradiography after 7 days of treatment; assay type: in vivo, Ratten; conditions: 1 µg daily s.c. for 7 days
Text: Jede Säule repräsentiert x ± SEM von 4-5 Einzelbestimmungen.

bcl-2 = bcl-2 transcripts in the dentate gyrus of the hippocampus by in-situ hybridisation after chronic treatment in vivo; set-up: species or system Wistar-Ratten; conditions: ovariectomised rats, 0,01, 0,1 and 1 µg daily s.c. for 7 days; effect of the prototype identical to equal doses of 17b-Estradiol
Text: Das Untersuchungsmaterial stammte von Tieren, die im unter Beispiel 3 beschriebenen Experiment behandelt wurden. […] Bcl-2-Transkripte wurden in Hirnschnitten durch in-situ-Hybridisierung mit einer spezifischen Oligonukleotid-Sonde (Clark RSB et al., Apoptosis-suppressor gene bcl-2 expression after traumatic brain injury in rats, J Neurosci 17: 9172-9182, 1997) dargestellt, und nach der im Beispiel 3 beschriebenen Methode densitometrisch quantifiziert.

Endometriums = experiment: Computer-aided measurement of endometrium thickness in uterus preparations; assay type: in vivo, Ratten; conditions: ovariectomised rats, 1 µg daily s.c. for 7 days
Uterus [1] = experiment: Uterus wet weight after chronic subcutaneous application (osmotic minipumps, 7 days) in ovariectomised rats; assay type: in vivo, Wistar-Ratten
Text: Geschlechtsreife (drei Monate alt, Gewicht 250±30 g) weibliche Wistar-Ratten (Tierzucht Schönwalde GmbH, Deutschland) wurden unter Ketamin-Narkose ovarektomiert. […] Am 7. Behandlungstag wurden die Tiere getötet und die Uterus-Feuchtgewichte (bezogen auf 100 g Körpergewicht) ermittelt.
Geschlechtsreife (drei Monate alt, Gewicht 250±30 g) weibliche Wistar-Ratten (Tierzucht Schönwalde GmbH, Deutschland) wurden unter Ketamin-Narkose ovarektomiert. […] Unmittelbar nach der Tötung der Tiere, wurden die Uterus-Feuchtgewichte (bezogen auf 100 g Körpergewicht) ermittelt. Die Messenger-Ribonukleinsäure (mRNA), die die Biosynthese von Oxytozin codiert, wurde durch in-situ-Hybridisierung mit einer spezifischen radioaktiv-markierten Oligodeoxynukleotid-Sonde nach einer etablierten Methode (Fischer D et al, Lactation as a model of naturally reversible hypercorticalism: plasticity in the mechanism governing hypothalamo-pituitary-adrenal activity in the rat, J Clin Invest 96: 1208-1215, 1995), 1995) im hypothalamischen Nucleus paraventricularis (PVN) dargestellt. Behandlungsbedingte Veränderungen in der Transkription des Oxytocin-Gens wurden durch densitometrische Messungen der spezifischen Hybridisierungssignale innerhalb der definierten anatomischen Stukturen quantifiziert.
(§2) Jeder Punkt stellt x ± SEM von 5-7 Einzelbestimmungen.

[2] = Serum concentration of 17b-Estradiol after 7 days of subcutaneous treatment (biotransformation); assay type: in vivo, Ratten; conditions: ovariectomised rats, daily s.c. for 7 days: 17a-Estradiol 100 µg, prototype 30 µg, 17b-Estradiol 1 µg; placebo below detection limit
Text: Sternzeichen bezeichnen signifikante Differenzen im Vergleich zu den Werten, die bei Placebo-behandelten Tieren gemessen wurden; die Letzteren waren unterhalb der Nachweisgrenze der Methode; jede Behandlungsgruppe bestand aus 7 Tieren.

[3] = system: Alpha-Isoform des Estrogenrezeptors (ERa); experiment: Activation of transcription of an ERa-dependent luciferase reporter gene in MCF-7/2A cells; assay type: cell-based; conditions: EREwtcLUC reporter, 10^-11 to 10^-8 M, 48 h, fold lower than 17b-Estradiol
Text: Brustkrebszellen MCF-7/2A, die die Alpha-Isoform des Estrogenrezeptors (ERa) exprimieren, wurden mit dem Reporter-Plasmid EREwtcLUC stabil transfiziert. Der Reporter enthält den Estrogen-Response Element (ERE) von Vitellogenin, einen Thymidinkinase-Promotor und das Luciferase-codierende Gen von Photinus pyralis. […] Die Zellen wurden lysiert und die Transkription des Luciferase-Reportergens wurde durch Bestimmung der Luciferase-Aktivität mit einem spezifischen Testansatz (Serva/Promega, Deutschland) ermittelt.
Die Figur stellt die Mittelwerte von zwei unabhängigen Versuchen dar.

Oxytocin-Gens = experiment: Oxytocin mRNA in the hypothalamic paraventricular nucleus by in-situ hybridisation after chronic treatment in vivo; set-up: species or system Wistar-Ratten; conditions: ovariectomised rats, 0,01, 0,1 and 1 µg daily s.c. for 7 days; effect of the prototype very similar to 17b-Estradiol
Text: Geschlechtsreife (drei Monate alt, Gewicht 250±30 g) weibliche Wistar-Ratten (Tierzucht Schönwalde GmbH, Deutschland) wurden unter Ketamin-Narkose ovarektomiert. […] Unmittelbar nach der Tötung der Tiere, wurden die Uterus-Feuchtgewichte (bezogen auf 100 g Körpergewicht) ermittelt. […] Behandlungsbedingte Veränderungen in der Transkription des Oxytocin-Gens wurden durch densitometrische Messungen der spezifischen Hybridisierungssignale innerhalb der definierten anatomischen Stukturen quantifiziert.
as §2

Uterus [4] = experiment: Uterus weight after 14 days of daily subcutaneous treatment (cognition experiment); assay type: in vivo, Wistar-Ratten; conditions: for Uterusgewichte (x ± SEM): after 14 days of daily s.c. treatment: 17b-Estradiol 1 µg, 17a-Estradiol 100 µg, prototype 30 µg, n = 8-10, OVX 53 ± 2
Text: as §1

| Compound | Retention des erlernten Verhaltensmusters (kognitive Leistung) | Dichte von Oxytozin-Rezeptoren in allen untersuchten Hirnstrukturen (Oxytozin-Rezeptoren; VMN and BNST, ovariectomised rats, 50 pM 125I-OVTA) | Dichte von Oxytozin-Rezeptoren im VMN im Vergleich mit 17b-Estradiol (Oxytozin-Rezeptoren; VMN) | Induktion von Oxytozin-Bindungsstellen im Myometrium (Oxytozin-Rezeptoren; ovariectomised rats) | Expression von bcl-2 im Gyrus dentatus (bcl-2) | Stärke des Endometriums (endometriale Proliferation) (Endometriums) | Wirksamkeit im weiblichen Genitaltrakt im Vergleich mit 17a-Estradiol (Uterus [1]; comparison in words) | Wirksamkeit im weiblichen Genitaltrakt, geringer als diese von 17b-Estradiol (Uterus [1]; fold lower than 17b-Estradiol, from uterotropic daily doses) | Uterus-Vergrößerung (Uterus [1]; ovariectomised rats, 0,01, 0,1 and 1 µg daily s.c. for 7 days (Example 3)) | Tagesdosen für signifikante Vergrößerung des Uterus (uterotroper Effekt) (Uterus [1]; ovariectomised rats, s.c. osmotic minipumps, 7 days, uterus wet weight per 100 g body weight) [µg] | Serumkonzentrationen von 17b-Estradiol [2] | Effizienz (Transkription des Reporters), geringer als diese von 17b-Estradiol [3] | Transkription des Oxytozin-Gens im PVN (Oxytocin-Gens) | Uterusgewichte (x ± SEM) (Uterus [4]) [mg/100g KG] | uterotrope Wirkung im Vergleich mit 17b-Estradiol in einer täglichen Dosis von 1 µg (Uterus [4]; prototype 30 µg daily s.c., 14 days) |
| --- | --- | --- | --- | --- | --- | --- | --- | --- | --- | --- | --- | --- | --- | --- | --- |
| C[C@]12CCC3=C(CCc4cc(O)ccc43)[C@@]13C[C@H]3C[C@H]2O [15βH,3'H-Cycloprop[14,15]-estra-1,3,5(10),8-tetraen-3,17α-diol] | estrogen-ähnlichen stimulierenden Effekt | signifikanten Anstieg | schwächeren Effekt als 17b-Estradiol | signifikant geringere Wirkung | dosisabhängigen Stimulation | nicht beeinflussen | vergleichbar mit derjenigen von 17a-Estradiol | ~1000 -fach | keiner Uterus-Vergrößerung | 30 | keinen Anstieg | 10 -fach | dosisabhängig stimuliert | 108 ± 4 | signifikant geringer |
| C[C@]12CC[C@@H]3c4ccc(O)cc4CC[C@H]3[C@@H]1CC[C@H]2O [17a-Estradiol] | – | – | – | signifikant geringere Wirkung | – | nicht beeinflussen | – | – | – | – | meßbare Konzentrationen | – | – | – | – |
| C[C@]12CC[C@@H]3c4ccc(O)cc4CC[C@H]3[C@@H]1CC[C@@H]2O [17b-Estradiol] | – | – | – | – | – | signifikante endometriale Proliferation | – | – | – | – | meßbare Konzentrationen | – | – | 187 ± 9 | – |
